pIC50: −log10 of the molar value.

For the assay, the target named is T1, human DGAT1 (Homo sapiens, UniProt O75907).
T1 construct: made in house; host or cells: Sf9 insect cells (recombinant baculovirus); membrane fraction
T1 sequence (O75907 1-488): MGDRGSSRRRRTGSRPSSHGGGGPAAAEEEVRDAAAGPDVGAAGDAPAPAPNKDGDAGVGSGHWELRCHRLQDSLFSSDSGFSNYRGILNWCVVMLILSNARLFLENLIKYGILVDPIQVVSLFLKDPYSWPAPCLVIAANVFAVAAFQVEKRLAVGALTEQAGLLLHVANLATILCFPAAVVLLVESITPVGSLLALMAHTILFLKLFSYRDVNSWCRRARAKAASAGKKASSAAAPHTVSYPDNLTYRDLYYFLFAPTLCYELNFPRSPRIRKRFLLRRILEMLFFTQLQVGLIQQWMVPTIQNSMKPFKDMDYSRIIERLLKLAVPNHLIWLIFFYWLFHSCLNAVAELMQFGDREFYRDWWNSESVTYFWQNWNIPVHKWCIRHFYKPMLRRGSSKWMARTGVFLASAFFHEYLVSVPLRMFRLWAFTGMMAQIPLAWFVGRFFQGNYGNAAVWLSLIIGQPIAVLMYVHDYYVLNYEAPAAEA
The experiment in a line: Human enzyme assay, further developed assay (14C oleoyl CoA, 96 well plate). The assay is classed as biochemical. To be noted: human DGAT1 expressed in insect cell (sf9) membranes. As to the method: The in vitro assay to identify DGAT1 inhibitors uses human DGAT1 expressed in insect cell membranes as the enzyme source (Proc. Natl. Acad. Sci. 1998, 95, 13018-13023). Briefly, sf9 cells were infected with recombinant baculovirus containing human DGAT1 coding sequences and harvested after 48 h. Cells were lysed by sonication and membranes isolated by centrifuging at 28000 rpm for 1 h at 4° C. on a 41% sucrose gradient. The membrane fraction at the interphase was collected, washed, and stored in liquid nitrogen.
In a further developed assay, DGAT1 activity was assayed by a modification of the method described by Coleman (Methods in Enzymology 1992, 209, 98-102). Compound at 0.00003-10 μM (final cone) was incubated with 25 μg/ml (final cone) membrane protein, 5 mM MgCl2, and 100 μM 1,2 dioleoyl-sn-glycerol in a total assay volume of 200 μl in a 96 well plate. The reaction was started by adding ^14C oleoyl coenzyme A (30 μM final concentration) and incubated at room temperature for 30 minutes. The reaction was stopped by adding 300 μl 2-propanol:heptane 7:1. Radioactive triolein product was separated into the organic phase by adding 200 μl heptane and 200 μl 0.1 M carbonate buffer pH 9.5. DGAT1 activity was quantified by counting aliquots of the upper heptane layer by liquid scintillography.
In general, pIC50 refers to the negative decadic logarithm of the IC50, by convention in mol/L. Read a high pIC50 as a small IC50. Regarding `O=C(Nc1ccc(O[C@H]2CC[C@@H](C(=O)O)CC2)nc1F)c1nnc(Nc2ccc(F)c(Cl)c2)o1` [Example 55, (1s,4s)-4-(5-(5-(3-Chloro-4-fluorophenylamino)-1,3,4-oxadiazole-2-carboxamido)-6-fluoropyridin-2-yloxy)cyclohexanecarboxylic acid], the pIC50 was 8.68.

For the molecule `O=C(Nc1ccc(O[C@H]2CC[C@H](C(=O)O)CC2)nc1)c1nnc(Nc2cccc(OC(F)(F)F)c2)o1` [Example 34, (1r,4r)-4-(5-(5-(3-(trifluoromethoxy)phenylamino)-1,3,4-oxadiazole-2-carboxamido)pyridin-2-yloxy)cyclohexanecarboxylic acid], the negative-log IC50 (pIC50) was 7.68.

On to `O=C(Nc1ccc(O[C@H]2CC[C@@H](C(=O)O)CC2)nc1)c1nnc(Nc2ccc(F)c(Cl)c2)o1` [Example 16, (1s,4s)-4-(5-(5-(3-chloro-4-fluorophenylamino)-1,1,4-oxadiazole-2-carboxamido)pyridin-2-yloxy)cyclohexanecarboxylic acid], for which the pIC50 is 8.42.

As for `O=C(Nc1ccc(O[C@H]2CC[C@H](C(=O)O)CC2)nc1)c1nnc(Nc2ccc(OC(F)(F)F)cc2)o1` [Example 25, (1r,4r)-4-(5-(5-(4-(trifluoro-methoxy)phenylamino)-1,3,4-oxadiazole-2-carboxamido)pyridin-2-yloxy)cyclo-hexane-carboxylic acid], the pIC50 is 7.28.

For `O=C(Nc1ccc(O[C@H]2CC[C@H](C(=O)O)CC2)nc1)c1nnc(Nc2cc(F)c(F)cc2F)o1` [Example 22, (1r,4r)-4-(5-(5-(2,4,5-trifluorophenylamino)-1,3,4-oxadiazole-2-carboxamido)pyridin-2-yloxy)cyclohexanecarboxylic acid], the pIC50 was 7.44.

Molecule `C[C@]1(C(=O)O)CC[C@@H](Oc2ccc(NC(=O)c3nnc(Nc4ccc(F)c(F)c4)o3)cn2)CC1` [Example 68, (1s,4s)-4-(5-(5-(3,4-Difluorophenylamino)-1,3,4-oxadiazole-2-carboxamido)pyridin-2-yloxy)-1-methylcyclohexanecarboxylic acid] gave a pIC50 of 8.08.

`C[C@]1(C(=O)O)CC[C@H](Oc2ccc(NC(=O)c3nnc(Nc4ccc(F)c(F)c4)o3)cn2)CC1` [Example 2, (1r,4r)-4-(5-(5-(3,4-difluorophenylamino)-1,3,4-oxadiazole-2-carboxamido)pyridin-2-yloxy)-1-methylcyclohexanecarboxylic acid] gave a pIC50 of 6.31.

Molecule `O=C(Nc1cnc(O[C@H]2CC[C@@H](C(=O)O)CC2)c(F)c1)c1nnc(Nc2ccc(F)c(Cl)c2)o1` [Example 61, (1s,4s)-4-(5-(5-(3-Chloro-4-fluorophenylamino)-1,3,4-oxadiazole-2-carboxamido)-3-fluoropyridin-2-yloxy)cyclohexanecarboxylic acid] gave a pIC50 of 7.72.

On to `O=C(Nc1cnc(O[C@H]2CC[C@@H](C(=O)O)CC2)c(Cl)c1)c1nnc(Nc2ccc(Cl)cc2Cl)o1` [Example 46, (1s,4s)-4-(3-Chloro-5-(5-(2,4-dichlorophenylamino)-1,3,4-oxadiazole-2-carboxamido)pyridin-2-yloxy)cyclohexanecarboxylic acid], for which the pIC50 was 7.66.

The molecule `Cc1nc(O[C@H]2CC[C@@H](C(=O)O)CC2)ccc1NC(=O)c1nnc(Nc2ccc(F)c(F)c2)o1` [Example 62, (1s,4s)-4-(5-(5-(3,4-Difluorophenylamino)-1,3,4-oxadiazole-2-carboxamido)-6-methylpyridin-2-yloxy)cyclohexanecarboxylic acid] gave a pIC50 of 7.24.

As for `Cc1cc(OC2CCC(C(=O)O)CC2)ncc1NC(=O)c1nnc(Nc2ccc(Cl)c(F)c2)o1` (stereo not shown) [Example 42, (1s,4s)-4-(5-(5-(4 - Chloro-3-fluorophenylamino)-1,3,4-oxadiazole-2-carboxamido)-4-methylpyridin-2-yloxy) cyclohexanecarboxylic acid], the pIC50 is 8.96.

In the case of `O=C(Nc1ccc(O[C@H]2CC[C@@H](C(=O)O)CC2)nc1F)c1nnc(Nc2cc(F)c(F)cc2F)o1` [Example 70, (1s,4s)-4-(6-Fluoro-5-(5-(2,4,5-trifluorophenylamino)-1,3,4-oxadiazole-2-carboxamido)pyridin-2-yloxy)cyclohexanecarboxylic acid], the pIC50 was 8.39.

In the case of `O=C(O)c1ccc(Oc2ccc(NC(=O)c3nnc(Nc4ccc(F)c(F)c4)o3)cn2)cc1` [Example 38, 4-(5-(5-(3,4-Difluorophenylamino)-1,3,4-oxadiazole-2-carboxamido)-Pyridin-2-yloxy)benzoic acid], the pIC50 was 8.27.

In turn, `CC(C)c1ccc(Nc2nnc(C(=O)Nc3ccc(O[C@H]4CC[C@@H](C(=O)O)CC4)nc3)o2)cc1` [Example 10, (1s,4s)-4-(5-(5-(4-isopropylphenylamino)-1,3,4-oxadiazole-2-carboxamido)pyridin-2-yloxy)cyclohexanecarboxylic acid] had a pIC50 of 7.72.

`O=C(Nc1ccc(OC2CCC(C(=O)O)CC2)nc1)c1nnc(Nc2ccc(OC(F)F)cc2)o1` (stereo not shown) [Example 21, 4-[(5-{[(5-{[4-(difluoromethoxy)phenyl]amino}-1,3,4-oxadiazol-2-yl)carbonyl]amino}pyridin-2-yl)oxy]cyclohexanecarboxylic acid] showed a pIC50 of 7.96.

`Cc1cc(NC(=O)c2nnc(Nc3ccc(F)c(F)c3)o2)cnc1O[C@H]1CC[C@@H](C(=O)O)CC1` [Example 17, (1s,4s)-4-(5-(5-(3,4-difluorophenylamino)-1,3,4-oxadiazole-2-carboxamido)-3-methylpyridin-2-yloxy)cyclohexanecarboxylic acid] gave a pIC50 of 7.57.

In turn, `O=C(O)C[C@H]1CC[C@@H](Oc2ccc(NC(=O)c3nnc(Nc4ccc(F)c(Cl)c4)o3)cn2)CC1` [Example 53, 2-((1s,4s)-4-(5-(5-(3-Chloro-4-fluorophenylamino)-1,3,4-oxadiazole-2-carboxamido)pyridin-2-yloxy)cyclohexyl)acetic acid] gave a pIC50 of 8.51.

For `O=C(Nc1ccc(O[C@H]2CC[C@H](C(=O)O)CC2)nc1)c1nnc(Nc2ccc(Br)cc2Cl)o1` [Example 33, (1r,4r)-4-(5-(5-(4-bromo-2-chloro-phenylamino)-1,3,4-oxadiazole-2-carboxamido)pyridin-2-yloxy)cyclo-hexane-carboxylic acid], the negative-log IC50 (pIC50) is 7.66.

Turning to `CC(C)c1ccc(Nc2nnc(C(=O)Nc3ccc(O[C@H]4C[C@@H](C(=O)O)C4)nc3)o2)cc1` [Example 63], the pIC50 was 7.52.

The molecule `COC[C@]1(C(=O)O)CC[C@H](Oc2ccc(NC(=O)c3nnc(Nc4ccc(F)c(F)c4)o3)cn2)CC1` [Example 4, (1r,4r)-4-(5-(5-(3,4-Difluorophenylamino)-1,3,4-oxadiazole-2-carboxamido)pyridin-2-yloxy)-1-(methoxymethyl)cyclohexanecarboxylic acid] showed a pIC50 of 7.82.

`O=C(Nc1cnc(O[C@H]2CC[C@@H](C(=O)O)CC2)cc1F)c1nnc(Nc2ccc(F)c(F)c2)o1` [Example 59, (1s,4s)-4-(5-(5-(3,4-Difluorophenylamino)-1,3,4-oxadiazole-2-carboxamido)-4-fluoropyridin-2-yloxy)cyclohexanecarboxylic acid] showed a pIC50 of 8.07.

Molecule `O=C(Nc1ccc(O[C@H]2C[C@H](C(=O)O)C2)nc1)c1nnc(Nc2ccc(F)c(F)c2)o1` [Example 66, trans-3-(5-(5-(3,4-difluorophenylamino)-1,3,4-oxadiazole-2-carboxamido)pyridin-2-yloxy)cyclobutanecarboxylic acid] showed a pIC50 of 8.68.
